Values joined by “and” are separate entries in the source; they are usually repeats but may differ in a detail not shown here. Equal entries are not always repeated. Where two headings read alike, the source gives them in different places. Values belong to the compound of their own block, whether it stands above or below them. Square brackets hold non-standard residues; d marks the D form. Peptide text beside a SMILES is read from it. * marks the point of attachment. Palmitoyl = CCCCCCCCCCCCCCCC(=O)*; Nspe = C[C@H](NCC(=O)O)c1ccccc1; Lauroyl = CCCCCCCCCCCC(=O)*; AEEA = NCCOCCOCC(=O)O; Nlys = NCCCCNCC(=O)O
Columns and labels:
[1] = Critical aggregation concentration (CAC) Nile red fluorescence assay; format: physicochemical; settings: room temperature
Experimental: Nile red (NR) fluorescence was used to measure critical aggregation concentration (CAC) for the synthesized lipopeptoids. Lipopeptoids were dissolved at 2.5 × 10^−2 to 1 wt.% in a dilute solution of Nile red (0.25 μg/100 mL, i.e. ~10 nM concentration) prepared in water. NR was excited at 552 nm and emission was recorded at room temperature in the range 550–750 nm using a 10.0 × 5.0 mm^2 quartz cell (Jasco spectrofluorimeter FP-6500). The intensity of the peak centered around 610 nm is shown in the data presented in Section results and discussion.
We first examined with a CAC assay whether coupling a hydrophobic tail to AMPMs and inserting the kk and EG2 components is a viable design for generating self-assembling lipopeptoids. The CAC measures the concentration above which hydrophobic pockets (e.g., lipophilic cores of micelles) are formed, and lower CACs indicate higher propensities of self-assembly. In our experiments, the CAC is indicated by an inflection in the increase in emission intensity of a lipophilic fluorophore tracer (Nile Red) that emits more strongly when partitioned into hydrophobic lower dielectric environments (see Figure S6 for an example analysis).

[2] = Analytical RP-HPLC elution (ACN %) as measure of hydrophobicity; format: physicochemical; settings: chromatographic, C18 column (250 × 4.6 mm Nucleosil), 30 min gradient 5–95% ACN in water with 0.1% TFA, 1 mL/min, used as measure of hydrophobicity
Experimental: Peptoids were synthesized on resin manually or with an automated synthesizer (Prelude X, Gyros Protein Technologies) using a solid phase “submonomer” approach (Zuckermann et al., [1992]; Lau, [2014]; Lau et al., [2017]). Briefly, the Fmoc protected rink amide resin was deprotected with 20% piperidine for 20 min, applied twice. Each residue was added by treatment to a mixture of bromoacetic acid (20 times excess) and diisopropyl-carbodiimide (18.5 times excess) for 15 min, followed by a halo-substitution reaction with appropriate primary amine submonomers. For the attachment of a di ethylene glycol linker, Fmoc-amino-3,6 dioxaoctanoic acid (1.8 mmol), and equivalent moles of HBTU ((2-(1H-benzotriazol-1-yl)-1,1,3,3-tetramethyluronium hexafluorophosphate) were reacted with the terminal amino group in the presence of N,N-diisopropylethylamine (DIPEA, 2.7 mmol). This reaction was carried out for 2 h at 37°C and repeated a second time for 4 h, to ensure coupling. Like resin Fmoc deprotection, EG2 N-terminal Fmoc deprotection was achieved using 20% piperidine for 20 min, applied twice. Different chain lengths of saturated fatty acids, i.e., pelargonic acid (C8), lauric acid (C11), and palmitic acid (C15) were subsequently coupled using the HBTU amide coupling as reported previously (Lau et al., [2017]). After solid phase synthesis, the resin was cleaved and side chains were deprotected for 30 min using a standard TFA:TIPS:H2O cocktail (95:2.5:2.5 v/v/v). Excess TFA was removed using a rotary evaporator and the peptoid was precipitated from the oily product using diethyl ether. The collected material was dissolved in small amounts of 1:1 acetonitrile:water (ACN:H2O) to ease sample transfer, and further dried in a lyophilizer. Dried crude products were weighed and dissolved in ACN-H2O mixtures for preparative RP-HPLC (Dionex Ultimate 3000) with a C18 column (250 × 10 mm Phenomenex Jupiter). Fractions containing the pure product were identified by ESI-LC-MS (Agilent 1200 with a Poroshell C18 column coupled to an Agilent 6130 mass spectrometer) and by analytical RP-HPLC (Dionex P680) using a C18 column (250 × 4.6 mm “Nucleosil”) with a 30 min gradient of 5–95% acetonitrile (ACN) in water containing 0.1% TFA at 1 mL/min. The purified fractions of peptoids and lipopeptoids were later stored as aliquots at −20°C until further analysis.

[3] = test system: Escherichia coli (ATCC 25922); format: cell-based
Experimental: (§1) Technical triplicates (n = 3) or more of samples at each concentration were analyzed.

[4] = test system: Staphylococcus aureus (NCTC 4135); format: cell-based
Experimental: as §1

[5] = test system: Pseudomonas aeruginosa (PA01); format: cell-based
Experimental: as §1

[6] = Cryo-TEM, size of nano-assemblies; format: physicochemical; settings: vitrified sample
Experimental: Sizes of selected lipopeptoid nano-assemblies were verified using a field emission cryo-electron microscope (JEOL JEM3200FSC), operating at 200 kV and at −187°C, configured in bright field mode and zero loss energy filtering (omega type) with a slit width of 20 eV. Sizes of selected lipopeptoids nano-assemblies were measured from photographs recorded using a Gatan Ultrascan 4000 CCD camera. Vitrified specimens were prepared on Quantifoil 3.5/1 holey carbon copper grids (hole size of 3.5 μm). The grids were first plasma cleaned using a Gatan Solarus 9500 plasma cleaner and then transferred into the environmental chamber of an automated FEI Vitrobot device at room temperature and 100% humidity. Thereafter, 3 μL of the sample solution was applied on the grid, which was blotted twice for 5 s and then vitrified in a 1:1 mixture of liquid ethane and propane at a temperature of −180°C. The grids with vitrified sample solution were maintained at liquid nitrogen temperature and then cryo-transferred to the microscope.

[7] = Small angle X-ray scattering (SAXS), size of nano-assemblies; format: physicochemical; settings: 1 wt.% peptoid solution, fitted
Experimental: SAXS experiments were performed on the bioSAXS beamline B21 at Diamond Light Source, U.K., using a previously established protocol (Castelletto et al., [2019]). Briefly, solutions containing 1 wt.% peptoid were loaded into a set of PCR tubes fitted in the 96-well plate of the BioSAXS robot. From there, the robot loaded the solutions into a quartz capillary perpendicularly placed in the path of the incident X-ray beam. SAXS data, collected using a Dectris PILATUS 2 M detector at a fixed camera length of 3.9 m, is presented as scattering intensity vs. q = 4π sinθ /λ (2θ: scattering angle; wavelength: λ = 1 Å). See Supplementary Information for description of SAXS data fitting.

[8] = Dynamic light scattering (DLS), hydrodynamic radius of nano-assemblies; format: physicochemical; settings: 0.4 wt.% in deionized water, 0.22 μm filtered, 25°C, detection angle 90°
Experimental: DLS measurements were carried out at room temperature (25°C) using an ALV/LSE-5004 instrument equipped with He-Ne laser (λ = 632.8 nm) at a detection angle of θ = 90° (Lau et al., [2017]). Samples were prepared at a concentration of 0.4 wt.% in deionized water (DI) water and further filtered using 0.22 μm pore size surfactant-free cellulose acetate (SFCA) syringe filters (Sigma Aldrich, UK) to avoid particulate contamination.

[9] = Nile red fluorescence (~10 nM NR in water), lipopeptoids 2.5 × 10^-2 to 1 wt.%, excitation 552 nm, peak around 610 nm, inflection in emission intensity
[10] = MH broth microdilution (CLSI M07-A10), ~5 × 10^5 CFU/mL, overnight 37°C, OD 600 nm, MIC = concentration with OD halfway between minimum and maximum, sigmoidal fit ± SD, n = 3 or more, maximum tested 100 μM

Structure (SMILES): CCCCCCCCCCCC(=O)NCCOCCOCC(=O)N(CCCCN)CC(=O)N(CC(=O)N(CC(=O)N(CCCCN)CC(=O)N(CC(=O)N(CC(=O)N(CCCCN)CC(=O)N(CCCCN)CC(N)=O)[C@@H](C)c1ccccc1)[C@@H](C)c1ccccc1)[C@@H](C)c1ccccc1)[C@@H](C)c1ccccc1 [C11-EG2-(kss)2-kk] ({Lauroyl-AEEA}-[Nlys][Nspe][Nspe][Nlys][Nspe][Nspe][Nlys][Nlys]-NH2)
CAC [1, 9]: 198 µM and 200 ± 17 µM
elution ACN % (RP-HPLC retention) [2]: 52 ACN %

Structure (SMILES): CCCCCCCCCCCC(=O)NCCOCCOCC(=O)N(CCCCN)CC(=O)N(CC(=O)N(CC(=O)N(CCCCN)CC(=O)N(CC(=O)N(CC(=O)N(CCCCN)CC(=O)N(CC(=O)N(CC(=O)N(CCCCN)CC(=O)N(CCCCN)CC(N)=O)[C@@H](C)c1ccccc1)[C@@H](C)c1ccccc1)[C@@H](C)c1ccccc1)[C@@H](C)c1ccccc1)[C@@H](C)c1ccccc1)[C@@H](C)c1ccccc1 [C11-EG2-(kss)3-kk] ({Lauroyl-AEEA}-[Nlys][Nspe][Nspe][Nlys][Nspe][Nspe][Nlys][Nspe][Nspe][Nlys][Nlys]-NH2)
CAC [1, 9]: 310 ± 38 µM
CAC ([1]; Nile red fluorescence in water, CAC expressed in mg/mL): 0.52 mg/mL
Antimicrobial activity (MIC) E. coli [3, 10]: 3 ± 0.2 µM
Antimicrobial activity (MIC) S. aureus [4, 10]: 1 ± 0.1 µM
Antimicrobial activity (MIC) P. aeruginosa ([5]; PA01, MH broth microdilution (CLSI M07-A10), ~5 × 10^5 CFU/mL, overnight 37°C, OD 600 nm, MIC = concentration with OD halfway between minimum and maximum, sigmoidal fit ± SD, n = 3 or more, maximum tested 100 μM): 15 ± 0.4 µM
elution ACN % (RP-HPLC retention) [2]: 54 ACN %

CAC [1, 9]: 304 µM and 300 ± 25 µM
elution ACN % (RP-HPLC retention) [2]: 66 ACN %
Structure (SMILES): CCCCCCCCCCCCCCCC(=O)N(CCCCN)CC(=O)N(CC(=O)N(CC(=O)N(CCCCN)CC(=O)N(CC(=O)N(CC(=O)N(CCCCN)CC(=O)N(CC(=O)N(CC(=O)N(CCCCN)CC(=O)N(CC(=O)N(CC(=O)N(CCCCN)CC(=O)N(CCCCN)CC(N)=O)[C@@H](C)c1ccccc1)[C@@H](C)c1ccccc1)[C@@H](C)c1ccccc1)[C@@H](C)c1ccccc1)[C@@H](C)c1ccccc1)[C@@H](C)c1ccccc1)[C@@H](C)c1ccccc1)[C@@H](C)c1ccccc1 [C15-(kss)4-kk] (Palmitoyl-[Nlys][Nspe][Nspe][Nlys][Nspe][Nspe][Nlys][Nspe][Nspe][Nlys][Nspe][Nspe][Nlys][Nlys]-NH2)

Structure (SMILES): CCCCCCCCCCCCCCCC(=O)NCCOCCOCC(=O)N(CCCCN)CC(=O)N(CC(=O)N(CC(=O)N(CCCCN)CC(=O)N(CC(=O)N(CC(=O)N(CCCCN)CC(=O)N(CC(=O)N(CC(=O)N(CCCCN)CC(=O)N(CC(=O)N(CC(=O)N(CCCCN)CC(=O)N(CCCCN)CC(N)=O)[C@@H](C)c1ccccc1)[C@@H](C)c1ccccc1)[C@@H](C)c1ccccc1)[C@@H](C)c1ccccc1)[C@@H](C)c1ccccc1)[C@@H](C)c1ccccc1)[C@@H](C)c1ccccc1)[C@@H](C)c1ccccc1 [C15-EG2-(kss)4-kk] ({Palmitoyl-AEEA}-[Nlys][Nspe][Nspe][Nlys][Nspe][Nspe][Nlys][Nspe][Nspe][Nlys][Nspe][Nspe][Nlys][Nlys]-NH2)
Antimicrobial activity (MIC) E. coli [3]: 44 ± 5 µM
Antimicrobial activity (MIC) S. aureus [4]: 36 ± 5 µM
Antimicrobial activity (MIC) P. aeruginosa [5]: >100 µM
Hydrodynamic radius RH (DLS): 45 nm

CAC [1, 9]: 38 µM and 38 ± 3 µM
CAC ([1]; Nile red fluorescence in water, CAC expressed in wt.%): 0.0075 wt.%
diameter of smallest non-compact aggregates (TEM) [6]: ca. 5 nm
radius of nano-assemblies (SAXS) [7]: 24 ± 5 nm
elution ACN % (RP-HPLC retention) [2]: 82 ACN %
hydrodynamic radius (RH) [8]: ca. 50 nm
Structure (SMILES): CCCCCCCCCCCCCCCC(=O)NCCOCCOCC(=O)N(CCCCN)CC(=O)N(CC(=O)N(CC(=O)N(CCCCN)CC(=O)N(CC(=O)N(CC(=O)N(CCCCN)CC(=O)N(CC(=O)N(CC(=O)N(CCCCN)CC(=O)N(CC(=O)N(CC(N)=O)[C@@H](C)c1ccccc1)[C@@H](C)c1ccccc1)[C@@H](C)c1ccccc1)[C@@H](C)c1ccccc1)[C@@H](C)c1ccccc1)[C@@H](C)c1ccccc1)[C@@H](C)c1ccccc1)[C@@H](C)c1ccccc1 [C15-EG2-(kss)4] ({Palmitoyl-AEEA}-[Nlys][Nspe][Nspe][Nlys][Nspe][Nspe][Nlys][Nspe][Nspe][Nlys][Nspe][Nspe]-NH2)

From paper PMC7253723, “Chain-End Modifications and Sequence Arrangements of Antimicrobial Peptoids for Mediating Activity and Nano-Assembly” (Frontiers in Chemistry, 2020)
